What all share (assay): in vitro susceptibility, MIC by mini broth dilution
What all share (format): cell-based

For assay [1], the system named is Staphylococcus aureus CVCC26003. The settings on record: strain CVCC26003. An outline of the steps:
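MICs were determined by mini broth dilution under NCCLS standards in CAMHB, using revived S. aureus CVCC26003 subcultured 20 h at 35° C. Compounds were two-fold serially diluted in DMSO across 11 wells, with duplicate rows. Bacterial suspension was diluted 1:200 in medium before inoculation.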

A further assay relates to Haemophilus parasuis. An outline of the steps:
(§1)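 Bacteria were revived from −20° C stocks and streaked twice on solid medium, each time grown 20 h at 35° C. Compounds were double-diluted in DMSO across 11 wells and tested in two parallel rows. The bacterial suspension was diluted 1:200 with liquid medium before MIC determination by mini broth dilution.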

Assay [2] concerns Streptococcus equines CVCC556. The settings on record: strain CVCC556. The essentials:
as §1

For assay [3], the system named is Actinobacillus pleuropneumoniae CVCC262. As to conditions: strain CVCC262. The essentials:
as §1

For assay [4], the system named is Pasteurella multocida CVCC399. The settings on record: strain CVCC399. An outline of the steps:
as §1

From patent US9765105B2, “Macrolide compound” (Pulike Biological Engineering, Inc., priority 2013, dated 2017) come the findings set out here.

As to `CCCCN(C)C[C@]1(O)[C@H](C)O[C@@H](O[C@H]2[C@H](C)[C@@H](O[C@@H]3O[C@H](C)C[C@H](N(C)C)[C@H]3O)[C@](C)(O)C[C@@H](C)NC[C@H](C)[C@@H](O)[C@](C)(O)[C@@H](CC)OC(=O)[C@@H]2C)C[C@@]1(C)OC` [syzx-98, (2R,3S,4R,5S,8R,10R,11R,12S,13S,14R)-13-[(2,6-dideoxy-3-C-methyl-3-O-methyl-4-C-[(N-methyl-butyl-amino)-methyl]-α-L-ribopyranosyl)oxy]-2-ethyl-3,4,10-trihydroxy-3,5,8,10,12,14-hexamethyl-11-[[3,4,6-trideoxy-3-(dimethylamino)-β-D-xylo-hexopyranosy]oxy]-1-oxa-7-azacyclopentadecan-15-one], the “MIC values, Staphylococcus aureus CVCC26003” value in assay [1] was 1 ug/mi. In the assay on Haemophilus parasuis, the “MIC values, Haemophilus parasuis” value stood at 0.5 ug/mi. Moreover, in assay [2], the “MIC values, Streptococcus equines CVCC556” value was determined as 0.25 ug/mi. Moreover, in assay [3], the “MIC values, Actinobacillus pleuropneumoniae CVCC262” value turned out to be 0.5 ug/mi. The “MIC values, Pasteurella multocida CVCC399” value in assay [4] came to 2 ug/mi.
As to `CCCN1C[C@H](C)[C@@H](O)[C@](C)(O)[C@@H](CC)OC(=O)[C@H](C)[C@@H](O[C@H]2C[C@@](C)(OC)[C@](O)(CNC(=O)C(F)(F)F)[C@H](C)O2)[C@H](C)[C@@H](O[C@@H]2O[C@H](C)C[C@H](N(C)C)[C@H]2O)[C@](C)(O)C[C@H]1C` [syzx-215], the “MIC values, Staphylococcus aureus CVCC26003” value in assay [1] stood at 0.25 ug/mi. Moreover, the “MIC values, Haemophilus parasuis” value against Haemophilus parasuis is given as 0.25 ug/mi. In addition, the “MIC values, Streptococcus equines CVCC556” value in assay [2] stood at 0.25 ug/mi. For the same compound, the “MIC values, Actinobacillus pleuropneumoniae CVCC262” value in assay [3] was 0.25 ug/mi. Further, the “MIC values, Pasteurella multocida CVCC399” value in assay [4] is listed as 0.5 ug/mi.
Take `C#CC=C(C)NC[C@]1(O)[C@H](C)O[C@@H](O[C@H]2[C@H](C)[C@@H](O[C@@H]3O[C@H](C)C[C@H](N(C)C)[C@H]3O)[C@](C)(O)C[C@@H](C)N(CCC)C[C@H](C)[C@@H](O)[C@](C)(O)[C@@H](CC)OC(=O)[C@@H]2C)C[C@@]1(C)OC` [syzx-162]: the “MIC values, Staphylococcus aureus CVCC26003” value in assay [1] was found to be 0.25 ug/mi. Further, in the assay on Haemophilus parasuis, the “MIC values, Haemophilus parasuis” value was 0.25 ug/mi. Also, the “MIC values, Streptococcus equines CVCC556” value in assay [2] is listed as 0.25 ug/mi. In addition, in assay [3], the “MIC values, Actinobacillus pleuropneumoniae CVCC262” value is recorded as 0.25 ug/mi. Moreover, the “MIC values, Pasteurella multocida CVCC399” value in assay [4] is on record as 1 ug/mi.
Regarding `CCCN1C[C@H](C)[C@@H](O)[C@](C)(O)[C@@H](CC)OC(=O)[C@H](C)[C@@H](O[C@H]2C[C@@](C)(OC)[C@](O)(CNCc3ccc(C(F)(F)F)cc3)[C@H](C)O2)[C@H](C)[C@@H](O[C@@H]2O[C@H](C)C[C@H](N(C)C)[C@H]2O)[C@](C)(O)C[C@H]1C` [syzx-116], the “MIC values, Staphylococcus aureus CVCC26003” value in assay [1] is 0.25 ug/mi. For the same compound, the “MIC values, Haemophilus parasuis” value against Haemophilus parasuis was found to be 0.25 ug/mi. Also, the “MIC values, Streptococcus equines CVCC556” value in assay [2] is on record as 0.25 ug/mi. Further, the “MIC values, Actinobacillus pleuropneumoniae CVCC262” value in assay [3] is reported as 0.25 ug/mi. In addition, the “MIC values, Pasteurella multocida CVCC399” value in assay [4] stood at 1 ug/mi.
Take `CC[C@H]1OC(=O)[C@H](C)[C@@H](O[C@H]2C[C@@](C)(OC)[C@](O)(CNCCCC(=O)O)[C@H](C)O2)[C@H](C)[C@@H](O[C@@H]2O[C@H](C)C[C@H](N(C)C)[C@H]2O)[C@](C)(O)C[C@@H](C)NC[C@H](C)[C@@H](O)[C@]1(C)O` [syzx-42, (2R,3S,4R,5S,8R,10R,11R,12S,13S,14R)-13-[(2,6-dideoxy-3-C-methyl-3-O-methyl-4-C-[[butyrate-4-amino]-methyl]-α-L-ribopyranosyl)oxy]-2-ethyl-3,4,10-trihydroxy-3,5,8,10,12,14-hexamethyl-11-[[3,4,6-trideoxy-3-(dimethylamino)-β-D-xylo-hexopyranosy]oxy]-1-oxa-7-azacyclopentadecan-15-one]: the “MIC values, Staphylococcus aureus CVCC26003” value in assay [1] was found to be 2 ug/mi. The “MIC values, Haemophilus parasuis” value with Haemophilus parasuis is listed as 1 ug/mi. In addition, in assay [2], the “MIC values, Streptococcus equines CVCC556” value is given as 1 ug/mi. The “MIC values, Actinobacillus pleuropneumoniae CVCC262” value in assay [3] is reported as 1 ug/mi. Moreover, the “MIC values, Pasteurella multocida CVCC399” value in assay [4] came to 2 ug/mi.
